The source of these data is patent US20250135042A1, “Perfluorocarbon-Containing Contrast Agent for Use in MRI Imaging of Body Cavities” (University of Pittsburgh - Of the Commonwealth System of …, priority 2023, published 2025).

The nature of series [1]: 1H relaxivity of serial two-fold dilutions in tubes, from T1 weighted images. Format: physicochemical. The settings on record: 7 Tesla, 37° C. On the procedure: FIGS. 2A and 2B: Graphical plots and T1 weighted images of individual tubes containing serial two-fold dilutions of Gadobutrol without ≥10% w/v PFC emulsion (FIG. 2A) or with ≥10% w/v PFC emulsion (FIG. 2B) display that ≥10% PFC emulsion diminishes the ^1H relaxivity of Gadobutrol from 3.95 L/mmol/s (FIG. 2A) to 2.05 L/mmol/s (FIG. 2B) at 7 Tesla scanner. T1 relaxation rate of water protons (R1=1/T1) was calculated from the slope of the line plotted by computing T1 relaxation time from T1 weighted images acquired at identical magnetic field strength of 7 Tesla at 37° C.
While gadolinium chelates are characterized by longitudinal and transverse relaxivity, denoted r1 and r2, respectively, (sensitivity to improve image contrast) gadolinium chelates are generally referred to as T1 agents owing to their larger effect on tissue T1 than on T2 for positive image contrast in T1-weighted images.

A short description of another series: Stokes-Einstein radius. Format: physicochemical.

For the molecule `O=C([O-])CN1CCN(CC(=O)[O-])CCN([C@H](CO)[C@H](O)CO)CCN(CC(=O)[O-])CC1.[Gd+3]` (racemic) [Gadobutrol, gadobutrol], the figures for the “1H relaxivity of Gadobutrol” value in series [1] (with ≥10% w/v PFC emulsion) and in series [1] (without ≥10% w/v PFC emulsion) were 2.05 L/mmol/s and 3.95 L/mmol/s, respectively. Besides, the “Stokes-Einstein radius (median for the emulsion particles)” value in “Stokes-Einstein radius” was determined as 0.4 nm.
